Measurements taken from patent US20240270679A1, “LIPIDS FOR USE IN LIPID NANOPARTICLE FORMULATIONS” (Acuitas Therapeutics, Inc., priority 2022, published 2024).

Tests used:
[1] = Determination of pKa of formulated lipids (TNS fluorescence assay in lipid nanoparticles); assay type: physicochemical; conditions: lipid nanoparticles (compound/DSPC/cholesterol/PEG-lipid), lipid formulated in LNP (cationic lipid/DSPC/cholesterol/PEG-lipid), pH of half-maximal fluorescence
Procedure: As described elsewhere, the pKa of formulated lipids is correlated with the effectiveness of LNPs for delivery of nucleic acids (see Jayaraman et al, Angewandte Chemie, International Edition (2012), 51(34), 8529-8533; Semple et al, Nature Biotechnology 28, 172-176 (2010)). In some embodiments, the preferred range of pKa is ˜5 to ˜7. The pKa of each lipid is determined in lipid nanoparticles using an assay based on fluorescence of 2-(p-toluidino)-6-napthalene sulfonic acid (TNS). Lipid nanoparticles comprising compound of structure (I)/DSPC/cholesterol/PEG-lipid (50/10/38.5/1.5 or 47.5:10:40.7:1.8 mol %) in PBS at a concentration of 0.4 mM total lipid are prepared using the in-line process as described in Example 1. TNS is prepared as a 100 μM stock solution in distilled water. Vesicles are diluted to 24 μM lipid in 2 mL of buffered solutions containing 10 mM HEPES, 10 mM MES, 10 mM ammonium acetate, and 130 mM NaCl, where the pH ranged from 2.5 to 11. An aliquot of the TNS solution is added to give a final concentration of 1 μM and following vortex mixing fluorescence intensity is measured at room temperature in a SLM Aminco Series 2 Luminescence Spectrophotometer using excitation and emission wavelengths of 321 nm and 445 nm. A sigmoidal best fit analysis is applied to the fluorescence data and the pKa is measured as the pH giving rise to half-maximal fluorescence intensity.

human IgG in mouse serum = experiment: Immunoglobulin G (IgG) mRNA in vivo evaluation using lipid nanoparticle compositions (human IgG ELISA); set-up: species or system mice; conditions: tail vein injection, μg IgG/mL serum 24 hours after administration; for Serum IgG @ 0.3 mg/kg: 0.3 mg mRNA/kg; for Serum IgG @ 1.0 mg/kg: 1.0 mg mRNA/kg
Procedure: A lipid of structure (I), DSPC, cholesterol and PEG-lipid are solubilized in ethanol at a molar ratio of 50:10:38.5:1.5 or 47.5:10:40.7:1.8. Lipid nanoparticles (LNP) are prepared at a total lipid to mRNA weight ratio of approximately 10:1 to 40:1. Briefly, the mRNA is diluted to 0.2 mg/mL in 10 to 50 mM citrate buffer, pH 4 or 10 to 25 mM acetate buffer, pH 4. Syringe pumps are used to mix the ethanolic lipid solution with the mRNA aqueous solution at a ratio of about 1:5 to 1:3 (vol/vol) with total flow rates above 15 mL/min. The ethanol is then removed, and the external buffer replaced with PBS by dialysis. Finally, the lipid nanoparticles are filtered through a 0.2 µm pore sterile filter.
Studies are performed in 6-8-week-old CD-1/ICR mice (Envigo) according to guidelines established by an institutional animal care committee (ACC) and the Canadian Council on Animal Care (CCAC). Varying doses of mRNA-lipid nanoparticle are systemically administered by tail vein injection and animals euthanized at a specific time point (e.g., 24 hours) post-administration. The whole blood is collected, and the serum subsequentially separated by centrifuging the tubes of the whole blood at 2000×g for 10 minutes at 4° C. and stored at −80° C. until use for analysis.
For immunoglobulin G (IgG) ELISA (Life Diagnostics Human IgG ELISA kit), the serum samples are diluted at 100 to 15000 folds with 1× diluent solution. 100 μL of diluted serum is dispensed into anti-human IgG coated 96-well plate in duplicate alongside human IgG standards and incubated in a plate shaker at 150 rpm at 25° C. for 45 minutes. The wells are washed 5 times with 1× wash solution using a plate washer (400 μL/well). 100 μL of HRP conjugate is added into each well and incubated in a plate shaker at the same condition above. The wells are washed 5 times again with 1× wash solution using a plate washer (400 μL/well). 100 μL of TMB reagent is added into each well and incubated in a plate shaker at the same condition above. The reaction is stopped by adding 100 μL of Stop solution to each well. The absorbance is read at 450 nm (A450) with a microplate reader. The amount of human IgG in mouse serum is determined by plotting A450 values for the assay standard against human IgG concentration.
Representative compounds of the disclosure shown in Table 2 were formulated using the following molar ratio: 50% cationic lipid/10% distearoylphosphatidylcholine (DSPC)/38.5% Cholesterol/1.5% PEG lipid 2-[2-(ω-methoxy(polyethyleneglycol2000)ethoxy]-N,N-ditetradecylacetamide) or 47.5% cationic lipid/10% DSPC/40.7% Cholesterol/1.8% PEG lipid. Activity was determined by measuring luciferase expression in the liver 4 hours following administration via tail vein injection as described in Example 1 or by measuring the amount of human IgG in mouse serum as described in Example 2. The activity was compared at a dose of 1.0 or 0.5 or 0.3 mg mRNA/kg and expressed as ng luciferase/g liver measured 4 hours after administration, as described in Example 1 or as μg IgG/mL serum measured 24 hours after administration, as described in Example 2. Compound numbers in Table 2 refer to the compound numbers of Table 1.

Row | pKa [1] | Structure (SMILES) | Serum IgG @ 0.3 mg/kg (human IgG in mouse serum) [µg/mL] | Serum IgG @ 1.0 mg/kg (human IgG in mouse serum) [µg/mL]
1 | 6.4 | CCCCCCCCC(CCCCCC)C(=O)OCCCCCCN(CCCCCCOC(=O)C(CCCCCC)CCCCCCCC)CCCCN(C)CCCCC(=O)N(CCCCCCCC)CCCCCCCC (stereo not drawn) [Compound I-51, ((4-((5-(dioctylamino)-5-oxopentyl)(methyl)amino)butyl)azanediyl)bis(hexane-6,1-diyl)bis(2-hexyldecanoate)] | 31.9 ± 6.5 | 131.5 ± 18.1
2 | 6.34 | CCCCCCCCC(CCCCCC)COC(=O)CCCCCN(CCCCCC(=O)OCC(CCCCCC)CCCCCCCC)CCCN(C)CCCCC(=O)N(CCCCCC)CCCCCC (stereo not drawn) [Compound I-49, Bis(2-hexyldecyl) 6,6′-((3-((5-(dihexylamino)-5-oxopentyl)(methyl)amino)propyl)azanediyl)dihexanoate] | 42.4 ± 11.7 | 120.6 ± 31.7
3 | 6.46 | CCCCCCCCC(CCCCCC)COC(=O)CCCCCN(CCCCCC(=O)OCC(CCCCCC)CCCCCCCC)CCCN(C)CCCCC(=O)OC (stereo not drawn) [Compound I-50, Bis(2-hexyldecyl) 6,6′-((3-((5-methoxy-5-oxopentyl)(methyl)amino)propyl)azanediyl)dihexanoate] | 15.4 ± 2.6 | 91.5 ± 19.7
